These results are taken from patent publication US4997849A, “Microbial transformation of simvastatin” (Merck & Co., Inc., priority 1989, dated 1991).

For data set [1], the target named is T1, HMG-CoA reductase (Homo sapiens, UniProt P04035).
T1 sequence (P04035 1-888): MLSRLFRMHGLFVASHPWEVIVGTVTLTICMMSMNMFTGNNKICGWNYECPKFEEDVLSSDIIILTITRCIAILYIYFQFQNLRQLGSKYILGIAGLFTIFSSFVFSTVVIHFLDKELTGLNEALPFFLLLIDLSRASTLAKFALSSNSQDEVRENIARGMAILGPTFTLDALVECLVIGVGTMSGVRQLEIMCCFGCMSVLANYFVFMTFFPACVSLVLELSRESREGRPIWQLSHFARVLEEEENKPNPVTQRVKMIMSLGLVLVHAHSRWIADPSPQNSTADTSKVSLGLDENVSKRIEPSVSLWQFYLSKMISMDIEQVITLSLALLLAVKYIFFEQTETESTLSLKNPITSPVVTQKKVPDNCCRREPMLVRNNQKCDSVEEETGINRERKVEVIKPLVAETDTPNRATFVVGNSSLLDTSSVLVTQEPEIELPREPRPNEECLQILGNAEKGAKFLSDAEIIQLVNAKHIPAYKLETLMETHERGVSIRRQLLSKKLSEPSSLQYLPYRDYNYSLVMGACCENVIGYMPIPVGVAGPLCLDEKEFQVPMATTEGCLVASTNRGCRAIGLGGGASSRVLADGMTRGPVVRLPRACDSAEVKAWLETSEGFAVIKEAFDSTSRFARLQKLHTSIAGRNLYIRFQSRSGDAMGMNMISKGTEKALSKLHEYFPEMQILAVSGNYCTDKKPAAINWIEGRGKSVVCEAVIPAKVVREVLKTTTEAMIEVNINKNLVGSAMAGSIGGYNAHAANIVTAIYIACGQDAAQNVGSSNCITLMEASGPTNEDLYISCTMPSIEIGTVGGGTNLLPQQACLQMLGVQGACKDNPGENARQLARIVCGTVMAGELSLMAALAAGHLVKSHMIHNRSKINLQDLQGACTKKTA
To be noted: relative to lovastatin; cited from earlier work.

Data set [2] addresses T2, HMG-CoA reductase (Rattus norvegicus, UniProt P51639).
T2 construct: from tissue
T2 sequence (P51639 1-887): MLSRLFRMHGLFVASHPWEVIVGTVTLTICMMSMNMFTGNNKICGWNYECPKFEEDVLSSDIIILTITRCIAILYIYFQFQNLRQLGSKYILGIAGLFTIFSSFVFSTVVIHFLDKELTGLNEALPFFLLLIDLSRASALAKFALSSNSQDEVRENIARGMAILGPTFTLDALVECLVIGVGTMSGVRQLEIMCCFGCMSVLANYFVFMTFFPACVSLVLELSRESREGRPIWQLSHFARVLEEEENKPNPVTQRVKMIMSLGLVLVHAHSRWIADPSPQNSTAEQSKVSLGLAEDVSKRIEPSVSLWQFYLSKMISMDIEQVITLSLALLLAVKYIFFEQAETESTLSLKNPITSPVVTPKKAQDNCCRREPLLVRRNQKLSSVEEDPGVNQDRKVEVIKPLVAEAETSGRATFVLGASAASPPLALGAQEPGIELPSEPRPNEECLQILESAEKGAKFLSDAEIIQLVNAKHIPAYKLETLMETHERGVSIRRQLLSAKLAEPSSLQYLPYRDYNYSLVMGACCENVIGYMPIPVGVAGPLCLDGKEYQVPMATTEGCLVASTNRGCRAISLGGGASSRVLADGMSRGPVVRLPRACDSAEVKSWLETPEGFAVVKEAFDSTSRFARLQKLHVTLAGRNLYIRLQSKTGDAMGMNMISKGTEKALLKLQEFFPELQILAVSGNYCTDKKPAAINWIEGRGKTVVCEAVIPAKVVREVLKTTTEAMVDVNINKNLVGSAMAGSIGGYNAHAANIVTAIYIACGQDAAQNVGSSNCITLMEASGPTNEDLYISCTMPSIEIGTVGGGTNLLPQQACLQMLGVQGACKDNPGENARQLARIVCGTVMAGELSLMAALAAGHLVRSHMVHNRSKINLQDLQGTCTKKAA
As to the kind of experiment: intrinsic HMG-CoA reductase inhibition activity, in vitro protocol of J. Med. Chem., 1985, 28, page 347. The data set is classed as biochemical. To be noted: potassium salt. Here is the method: The intrinsic HMG-CoA reductase inhibition activity of the claimed compounds is measured in the in vitro protocol described in J. Med. Chem., 1985, 28, page 347.

The nature of data set [3]: reversion of free dihydroxy acid to parent lactone on standing. Type of data set: physicochemical. To be noted: on standing at room temperature. Here is the method: The sodium salt of the compound II from Example 8 is dissolved in 2 ml of ethanol-water (1:1; v:v) and added to 10 ml of 0.1N hydrochloric acid from which the dihydroxy acid is extracted with ethyl acetate. The organic extract is washed once with water, dried (Na2 SO4), and evaporated in vacuo with a bath temperature not exceeding 30° C.

Regarding `CCC(C)(C)C(=O)O[C@H]1C[C@@H](C)C=C2C=C[C@H](C)[C@H](CC[C@@H]3C[C@@H](O)CC(=O)O3)[C@H]21` [simvastatin], the “HMG-CoA reductase inhibitor potency compared with lovastatin” value on HMG-CoA reductase [1] is “even more potent HMG-CoA reductase inhibitor than lovastatin”.

For orientation: IC50 means the midpoint of a concentration-inhibition curve. Regarding `CC1C=Cc2cc(CO)ccc2C1CC[C@@H](O)C[C@@H](O)CC(=O)O` (stereo partly drawn), the IC50 on HMG-CoA reductase [2] is 897 nM.

On to `CC1C=Cc2cc(CO)ccc2C1CC[C@@H](O)C[C@@H](O)CC(=O)O` (stereo partly drawn) [dihydroxy acid derivative], for which the “reversion to the corresponding parent lactone” value in data set [3] is “slowly reverts to the corresponding parent lactone on standing at room temperature”.
